Publication PMC11995724, “Antibiotic target discovery by integrated phenotypic and activity-based profiling of electrophilic fragments” (Cell chemical biology, 2025)

Assay: in vitro
Conditions: human, hek293t cells

SMILES | viability at 48 h, 25 µM [%]
Cc1c(C=C(C#N)C(=O)Nc2nccs2)cc(C#N)n1C [8-B18, 2-cyano-3-(5-cyano-1,2-dimethyl-1H-pyrrol-3-yl)-N-(1,3-thiazol-2-yl)prop-2-enamide] | 94.1
N#CC(=Cc1ccncc1)C(=O)Nc1cccc(Cl)c1 [8-B19, N-(3-chlorophenyl)-2-cyano-3-(pyridin-4-yl)prop-2-enamide] | 85.5
N#CC(=Cc1ccco1)C(=O)Nc1cccc2ncccc12 [8-B20, 2-cyano-3-(furan-2-yl)-N-(quinolin-5-yl)prop-2-enamide] | 85.9
N#CC(=Cc1cccnc1)C(=O)Nc1ccc(F)cc1 [8-B21, 2-cyano-N-(4-fluorophenyl)-3-(pyridin-3-yl)prop-2-enamide] | 125
N#CC(=Cc1cccc([N+](=O)[O-])c1)C(=O)NCc1ccccc1 [8-B22, N-benzyl-2-cyano-3-(3-nitrophenyl)prop-2-enamide] | 32
COc1ccc(C=C(C#N)C(=O)Nc2ccc(Cl)c(Cl)c2)cc1 [8-C03, 2-cyano-N-(3,4-dichlorophenyl)-3-(4-methoxyphenyl)prop-2-enamide] | 99.6
N#CC(=Cc1ccc(N2CCCCC2)cc1)C(=O)Nc1nccs1 [8-C04, 2-cyano-3-[4-(piperidin-1-yl)phenyl]-N-(1,3-thiazol-2-yl)prop-2-enamide] | 97.1
COc1ccc(C=C(C#N)C(=O)Nc2ccc([N+](=O)[O-])cc2)cc1 [8-C05, 2-cyano-3-(4-methoxyphenyl)-N-(4-nitrophenyl)prop-2-enamide] | 81.5
N#CC(=Cc1ccc(-c2ccccc2)cc1)C(=O)NCc1ccccc1 [8-C06, N-benzyl-3-{[1,1'-biphenyl]-4-yl}-2-cyanoprop-2-enamide] | 81.4
N#CC(=Cc1ccc(-c2cccc([N+](=O)[O-])c2)o1)C(=O)N1CCOCC1 [8-C07, 2-(morpholine-4-carbonyl)-3-[5-(3-nitrophenyl)furan-2-yl]prop-2-enenitrile] | 79.1
CC(C)NC(=O)C(C#N)=Cc1cc(F)ccc1F [8-C08, 2-cyano-3-(2,5-difluorophenyl)-N-(propan-2-yl)prop-2-enamide] | 138
COc1ccc(C=C(C#N)C(=O)NCc2ccccc2)cc1O [8-C09, N-benzyl-2-cyano-3-(3-hydroxy-4-methoxyphenyl)prop-2-enamide] | 66.6
N#CC(=Cc1cc(F)ccc1F)C(=O)Nc1ccc(F)cc1F [8-C10, 2-cyano-N-(2,4-difluorophenyl)-3-(2,5-difluorophenyl)prop-2-enamide] | 91.2
N#CC(=Cc1ccc(Cl)cc1)C(=O)Nc1nccs1 [8-C11, 3-(4-chlorophenyl)-2-cyano-N-(1,3-thiazol-2-yl)prop-2-enamide] | 79
CC(=O)Nc1ccc(NC(=O)C(C#N)=Cc2cc(F)ccc2F)cc1 [8-C12, 2-cyano-3-(2,5-difluorophenyl)-N-(4-acetamidophenyl)prop-2-enamide] | 57.6
N#CC(=Cc1ccccc1)C(=O)Nc1ccccc1F [8-C13, 2-cyano-N-(2-fluorophenyl)-3-phenylprop-2-enamide] | 69.6
Cc1ccc(C=C(C#N)C(=O)Nc2ccc(C(=O)O)cc2)o1 [8-C14, 4-[2-cyano-3-(5-methylfuran-2-yl)prop-2-enamido]benzoic acid] | 109
N#CC(=Cc1ccccc1Cl)C(=O)Nc1cccc2ncccc12 [8-C15, 3-(2-chlorophenyl)-2-cyano-N-(quinolin-5-yl)prop-2-enamide] | 51
COc1cccc(NC(=O)C(C#N)=Cc2ccc(C)cc2C)c1 [8-C16, 2-cyano-3-(2,4-dimethylphenyl)-N-(3-methoxyphenyl)prop-2-enamide] | 91.5
C=CCNC(=O)C(C#N)=Cc1cc(C)n(-c2ccc(C)cc2)c1C [8-C17, 2-cyano-3-[2,5-dimethyl-1-(4-methylphenyl)-1H-pyrrol-3-yl]-N-(prop-2-en-1-yl)prop-2-enamide] | 60.7
Cc1cccc(NC(=O)C(C#N)=Cc2cc(C)c(C)cc2C)c1 [8-C18, 2-cyano-N-(3-methylphenyl)-3-(2,4,5-trimethylphenyl)prop-2-enamide] | 92.9
CC1CCCC(NC(=O)C(C#N)=Cc2ccccc2)C1C (centres unmarked) [8-C19, 2-cyano-N-(2,3-dimethylcyclohexyl)-3-phenylprop-2-enamide] | 27.3
N#CC(=CN1CCN(c2ccccc2)CC1)C(=O)Nc1ccc(F)cc1 [8-C20, 2-cyano-N-(4-fluorophenyl)-3-(4-phenylpiperazin-1-yl)prop-2-enamide] | 72.5
COc1ccc(C=C(C#N)C(=O)Nc2ccccc2Cl)cc1O [8-C21, N-(2-chlorophenyl)-2-cyano-3-(3-hydroxy-4-methoxyphenyl)prop-2-enamide] | 82.8
N#CC(=Cc1cc2cc(F)ccc2o1)C(=O)NC(N)=O [8-C22, {2-cyano-2-[(5-fluoro-1-benzofuran-2-yl)methylidene]acetyl}urea] | 79.1

SMILES | viability at 48 h, 25 µM [%]
Cn1ccnc1Sc1ccc(C=C(C#N)C(N)=O)cc1[N+](=O)[O-] [8-D03, 2-cyano-3-{4-[(1-methyl-1H-imidazol-2-yl)sulfanyl]-3-nitrophenyl}prop-2-enamide] | 135
N#CC(=Cc1ccc(F)c([N+](=O)[O-])c1)C(=O)Nc1ccc(F)cc1 [8-D04, 2-cyano-3-(4-fluoro-3-nitrophenyl)-N-(4-fluorophenyl)prop-2-enamide] | 1.12
C=CCNC(=O)C(C#N)=Cc1cccc(C)c1 [8-D05, 2-cyano-3-(3-methylphenyl)-N-(prop-2-en-1-yl)prop-2-enamide] | 102
Cc1ccc(NC(=O)C(C#N)=Cc2cccc(Cl)c2Cl)cc1 [8-D06, 2-cyano-3-(2,3-dichlorophenyl)-N-(4-methylphenyl)prop-2-enamide] | 69.5
N#CC(=Cc1cccc(Oc2ccccc2)c1)C(=O)NC(N)=O [8-D07, {2-cyano-2-[(3-phenoxyphenyl)methylidene]acetyl}urea] | 134
N#CC(=Cc1ccc([N+](=O)[O-])c(Cl)c1)C(=O)NCc1ccccc1 [8-D08, N-benzyl-3-(3-chloro-4-nitrophenyl)-2-cyanoprop-2-enamide] | 1.37
Cc1ccc(NC(=O)C(C#N)=Cc2ccc(C)s2)c(C)c1 [8-D09, 2-cyano-N-(2,4-dimethylphenyl)-3-(5-methylthiophen-2-yl)prop-2-enamide] | 99.2
Cc1ccccc1NC(=O)C(C#N)=Cc1cccnc1 [8-D10, 2-cyano-N-(2-methylphenyl)-3-(pyridin-3-yl)prop-2-enamide] | 95.5
COc1ccc(NC(=O)C(C#N)=Cc2ccc(-c3ccccc3)cc2)cc1 [8-D11, 3-{[1,1'-biphenyl]-4-yl}-2-cyano-N-(4-methoxyphenyl)prop-2-enamide] | 103
CC(=O)Nc1ccc(C=C(C#N)C(=O)NCc2ccccc2)cc1 [8-D12, N-benzyl-2-cyano-3-(4-acetamidophenyl)prop-2-enamide] | 84.4
CC1=CSC(=C(C#N)C(=O)NCc2ccco2)N1c1ccccc1 [8-D13, 2-cyano-N-[(furan-2-yl)methyl]-2-(4-methyl-3-phenyl-2,3-dihydro-1,3-thiazol-2-ylidene)acetamide] | 114
N#CC(=Cc1c2ccccc2cc2ccccc12)C(=O)NC1CCCCC1 [8-D14, 3-(anthracen-9-yl)-2-cyano-N-cyclohexylprop-2-enamide] | 94.6
Cc1ccc(NC(=O)C(C#N)=Cc2cccs2)c(C)c1 [8-D15, 2-cyano-N-(2,4-dimethylphenyl)-3-(thiophen-2-yl)prop-2-enamide] | 101
Cc1[nH]c2ccccc2c1C=C(C#N)C(=O)NCc1ccccc1 [8-D16, N-benzyl-2-cyano-3-(2-methyl-1H-indol-3-yl)prop-2-enamide] | 96.6
N#CC(=CC(Cl)=Cc1ccccc1)C(=O)NC1CCCCC1 [8-D17, 4-chloro-2-cyano-N-cyclohexyl-5-phenylpenta-2,4-dienamide] | 7.44
N#CC(=Cc1c(F)cccc1F)C(=O)NCCc1ccccc1 [8-D18, 2-cyano-3-(2,6-difluorophenyl)-N-(2-phenylethyl)prop-2-enamide] | 47.1
Cc1ccccc1NC(=O)C(C#N)=Cc1cc(C)n(CC(C)C)c1C [8-D19, 2-cyano-3-[2,5-dimethyl-1-(2-methylpropyl)-1H-pyrrol-3-yl]-N-(2-methylphenyl)prop-2-enamide] | 118
N#CC(=Cc1cccs1)C(=O)Nc1cccc2ncccc12 [8-D20, 2-cyano-N-(quinolin-5-yl)-3-(thiophen-2-yl)prop-2-enamide] | 84.3
Cc1ccc(C=C(C#N)C(=O)NC(N)=O)o1 [8-D21, {2-cyano-2-[(5-methylfuran-2-yl)methylidene]acetyl}urea] | 101
Cc1ccsc1C=C(C#N)C(=O)Nc1c(Cl)cccc1Cl [8-D22, 2-cyano-N-(2,6-dichlorophenyl)-3-(3-methylthiophen-2-yl)prop-2-enamide] | 78.5
N#CC(=Cc1ccc(OC(F)F)cc1)C(=O)N1CCCc2ccccc21 [8-E03, 3-[4-(difluoromethoxy)phenyl]-2-(1,2,3,4-tetrahydroquinoline-1-carbonyl)prop-2-enenitrile] | 64.6
Cc1ccc(C=C(C#N)C(=O)Nc2ccc(C(=O)O)cc2)s1 [8-E04, 4-[2-cyano-3-(5-methylthiophen-2-yl)prop-2-enamido]benzoic acid] | 91.5
CCNC(=O)C(C#N)=Cc1ccc(OC(F)F)cc1 [8-E05, 2-cyano-3-[4-(difluoromethoxy)phenyl]-N-ethylprop-2-enamide] | 81.4
CN(C)c1ccc(C=C(C#N)C(=O)Nc2nccs2)cc1 [8-E06, 2-cyano-3-[4-(dimethylamino)phenyl]-N-(1,3-thiazol-2-yl)prop-2-enamide] | 75.1
CC1CCCCC1NC(=O)C(C#N)=Cc1cccc(O)c1 (centres unmarked) [8-E07, 2-cyano-3-(3-hydroxyphenyl)-N-(2-methylcyclohexyl)prop-2-enamide] | 45.1
